Values quoted from earlier work as cited in patent US20130237556A1, “BERBERINE ALKALOID AS A MEDICAMENT FOR PREVENTION AND TREATMENT OF NEURAL DISEASE” (HONG KONG BAPTIST UNIVERSITY, priority 2012, published 2013).

Test system: activated microglia
Conditions: ibuprofen-treated animals; cited from earlier work

For `CC(C)Cc1ccc(C(C)C(=O)O)cc1` (stereo not shown) [ibuprofen], the “decrease in activated microglia” value is listed as 57%.
